Like-named read-outs stand apart in the source and are kept apart here.
Assays:
[1] = system: Gaeumannomyces graminis var. tritici (Ggt); assay: In vitro Assay: mycelial growth of Ggt on minimal media agar plates containing test compound; assay type: cell-based; details: dark, 19-20° C., 4 to 5 days, diameter of mycelial growth; for inhibition at 0.1 ppm / inhibition at 1 ppm / inhibition at 10 ppm: Gaeumannomyces graminis; for inhibition at 0.1 ppm: read-out: In vitro (ppm) 0.1, Percent Inhibition; for inhibition at 1 ppm: read-out: In vitro (ppm) 1, Percent Inhibition; for inhibition at 10 ppm: read-out: In vitro (ppm) 10, Percent Inhibition
Outline: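 Ggt mycelial diameter read after 4 to 5 days in darkness at 19-20° C, from three 4-mm plugs placed on Czapek Dox minimal agar containing test compound delivered in acetone. Inhibition expressed as percent versus untreated plates, plug size (4 mm) subtracted from both.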

Ggt = assay: In vivo Assay: control of Ggt on wheat grown in pots of Ggt-infested soil, root disease rating; parameters: species or system Gaeumannomyces graminis var. tritici; details: for pest or weed control at 0.5 mg/pot: Gaeumannomyces graminis, 672 h, read-out: In vivo, percent disease control
Protocol: Compounds are tested for control of Ggt on ‘Bergen’ or ‘Anza’ varieties of wheat grown in 3-inch square pots containing soil infested with Ggt. The infestation is accomplished by mixing the soil with an inoculum prepared by growing Ggt on ¼ strength potato dextrose agar (4.875 g potato dextrose agar, 5.0 g Bacto agar, 500 mL distilled, deionized water) in plates and using plugs from the plates to infest sterile oats (400 cc whole oats, 350 mL deionized water, autoclaved). After a one-month incubation period at room temperature, the oats are dried and mixed with the soil at 4% v/v. Four wheat seeds are placed on top of the soil in each pot. The test compounds are prepared as an 1:9 acetone/water v/v solution containing 0.18% Tween® 20 to provide a treatment rate of 0.5 mg active ingredient per pot, treated with 3 mL test solution per pot. Five pots are used for each treatment level and the controls, which are untreated, inoculated and non-inoculated pots. After one hour drying time, the seeds are covered with more of the appropriate soil and a layer of vermiculite. The pots are placed in a growth chamber and watered each day. After four weeks, each pot is evaluated for evidence of disease by examination of the seminal roots of each plant under a dissecting microscope. A 0 to 5 rating scale having the following meanings is used:
0=no runner hyphae or lesions present
1=runner hyphae and a few small lesions present on <10% of root system
2=runner hyphae and small lesions present on 10-25% of root system
3=runner hyphae and lesions present on 25-50% of root system
4=runner hyphae and many, large, coalescing lesions on >50% of root system
5=root system and culm completely inundated with lesions and runner hyphae
From each set of five replicates a high and low score is eliminated and a replicate mean is calculated by the average of the remaining three scores. This mean score is then compared to the untreated control score and a percent disease control is calculated.

[2] = 0.5 mg active ingredient per pot, 'Bergen' or 'Anza' wheat in Ggt-infested soil, after four weeks, vs untreated control

Row | Structure (SMILES) | inhibition at 0.1 ppm ([1]; 0.1 ppm in minimal media agar) | inhibition at 1 ppm ([1]; 1 ppm in minimal media agar) | inhibition at 10 ppm ([1]; 10 ppm in minimal media agar) | pest or weed control at 0.5 mg/pot (Ggt; [2]) | In vitro (ppm) 0.1, Percent Inhibition ([1]; 0.1 ppm in minimal media agar) | In vitro (ppm) 1, Percent Inhibition ([1]; 1 ppm in minimal media agar) | In vitro (ppm) 10, Percent Inhibition ([1]; 10 ppm in minimal media agar) | In vivo, percent disease control (Ggt; [2]) | pest or weed control at 0.5 mg/pot (Ggt; soil)
1 | C[Si](C)(C)c1cccc(Cl)c1C(=O)NC1CC1 [Example 34, 2-Chloro-N-cyclopropyl-6-(trimethylsilyl)benzamide] | 97% | 100% | 100% | 100% |  |  |  |  | 
2 | C[Si](C)(C)c1cccc(Cl)c1C(=O)NCCF [Example 155, 2-Chloro-N-(2-fluoroethyl)-6-(trimethylsilyl)benzamide] | < 0% | 64% | 90% | 93% |  |  |  |  | 
3 | COc1ccccc1NC(=O)c1c(Cl)cccc1[Si](C)(C)C [Example 159, 2-Chloro-N-(2-methoxyphenyl)-6-(trimethylsilyl)benzamide] | 12% | 55% | 100% | 0% |  |  |  |  | 
4 | CCCCNC(=O)c1c(Cl)cccc1[Si](C)(C)C [Example 20, N-Butyl-2-chloro-6-(trimethylsilyl)-benzamide] | 7% | 14% | 61% | 36% |  |  |  |  | 
5 | CCN(Cc1ccccc1)C(=O)c1c(Cl)cccc1[Si](C)(C)C [Example 35, 2-Chloro-N-ethyl-N-(phenylmethyl)-6-(trimethylsilyl)benzamide] | 3% | 7% | 93% | 46% |  |  |  |  | 
6 | CC(C)NC(=O)c1c(Cl)cccc1[Si](C)(C)C [Example 21, 2-Chloro-N-(1-methylethyl)-6-(trimethylsilyl) benzarnide] |  |  |  |  | 100% | 100% | 100% | 100% | 
7 | CC(C)(C)OC(=O)Nc1c(Cl)cccc1[Si](C)(C)C [Example 111, [2-Chloro-6-(trimethylsilyl)phenyl]carbamic acid, 1,1-dimethylethyl ester] | 14% | 66% | 100% |  |  |  |  |  | 48%
8 | CCN(CC)C(=O)c1c(Cl)cccc1[Si](C(C)C)(C(C)C)C(C)C [Example 68, N,N-Diethyl-2-chloro-6-[tris(1-methylethyl)silyl]benzamide] | 8% | < 0% | 41% | < 0% |  |  |  |  | 
9 | CCNC(=O)c1sc(Cl)cc1[Si](C)(C)C [Example 254, 5-Chloro-N-ethyl-3-(trimethylsilyl)-2-thiophenecarboxamide] | 97% | 97% | 100% | 40% |  |  |  |  | 
10 | CCN(C)C(=O)c1c(Cl)cccc1[Si](C)(C)C [Example 22, 2-Chloro-N-ethyl-N-methyl-6-(trimethylsilyl)benzamide] | 13% | < 0% | 46% | 91% |  |  |  |  | 
11 | C[Si](C)(C)c1cccc(Cl)c1C(=O)NCCBr [Example 153, N-(2-Bromoethyl)-2-chloro-6-(trimethylsilyl)benzamide] | < 0% | 88% | 91% | 29% |  |  |  |  | 
12 | CCN(CC)C(=O)c1c(Cl)cccc1[Si](C)(C)CCl [Example 69, N,N-Diethyl-2-chloro-6-[(chloromethyl)dimethylsilyl]benzamide] | 51% | 81% | 100% | 67% |  |  |  |  | 
13 | CCN(CC)C(=O)c1c(Cl)cccc1[Si](C)(C)C [Example 39, 2-Chloro-N,N-diethyl-6-(trimethylsilyl)benzamide] | 49% | 82% | 92% | 99% |  |  |  |  | 
14 | Cc1ccccc1NC(=O)c1c(Cl)cccc1[Si](C)(C)C [Example 33, 2-Chloro-N-(2-methylphenyl)-6-(trimethylsilyl)benzamide] | < 0% | 44% | 100% | 12% |  |  |  |  | 

Source: US6410558B1, “Fungicides for the control of take-all disease of plants” (Monsanto Technology LLC, priority 1991, dated 2002)
